Blank lines part the entries; values can stand above or below the compound they belong to.
Assays:
MIN6 beta cells = test: Glucose-stimulated insulin secretion (GSIS); assay type: cell-based, mouse; conditions: 52 as pre-treatment before 2f-LIGRLO-NH2
Procedure: Rat pancreas and mouse MIN6 beta cells were cultured in DMEM (25 mM glucose) supplemented with 15% fetal calf serum, 10 U/mL penicillin, 10 U/mL streptomycin, 2 mM L-glutamine and […] 2-mercaptoethanol. MIN6 beta cells were passaged and harvested using non-enzymatic cell dissociation solution (Sigma-Aldrich). Glucose-stimulated insulin secretion (GSIS) was performed as described next. MIN6 beta cells were seeded at 0.8×106 mL in a 96-well plate and cultured for 48 h. Cells were washed twice with glucose-free Krebs buffer (NaCl 119 mM, KCl 4.74 mM, CaCl2 2.54 mM, MgCl2 1.19 mM, KH2PO4 1.19 mM, NaHCO3 25 mM, HEPES (pH 7.4) 10 mM and 0.05% BSA). Cells were pre-treated with compound 52 for 30 min with Krebs buffer supplemented with 2.5 mM glucose. After incubation, cells were washed twice with glucose-free Krebs buffer. Glucose (2.5 mM and 25 mM) and compounds were added at specified concentration and incubated for 1 h. Supernatants were collected and insulin concentrations were determined by ELISA (Abeam).

PAR2 [1] = molecular target: T1, PAR2 (Mus musculus, UniProt P55086); test: Intracellular calcium mobilization in MIN6 beta cells; assay type: cell-based; conditions: concentration-dependent
T1 construct: endogenous in cells; host or cells: MIN6 (mouse pancreatic beta cell line)
T1 sequence (P55086 26-399): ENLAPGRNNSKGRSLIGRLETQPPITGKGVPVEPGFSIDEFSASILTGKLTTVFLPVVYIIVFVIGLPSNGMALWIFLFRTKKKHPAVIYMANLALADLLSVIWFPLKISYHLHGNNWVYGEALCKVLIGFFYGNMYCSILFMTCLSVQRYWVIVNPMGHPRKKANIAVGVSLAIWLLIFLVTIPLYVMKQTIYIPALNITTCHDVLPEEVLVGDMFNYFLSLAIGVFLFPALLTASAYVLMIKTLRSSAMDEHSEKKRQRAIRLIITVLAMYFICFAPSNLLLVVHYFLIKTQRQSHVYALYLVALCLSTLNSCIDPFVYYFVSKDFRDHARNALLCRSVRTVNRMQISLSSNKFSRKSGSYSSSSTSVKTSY
Procedure: Results: Pathogenesis of pancreatic dysfunction is linked to chronic nutritional surplus and elevated fatty acids, so in vivo and in vitro effects of compound 52 were evaluated on rat pancreas and mouse MIN6 beta cells. […] PAR2 agonists and compound 52 were further evaluated in vitro for glucose-stimulated insulin secretion (GSIS) and intracellular calcium mobilization in mouse MIN6 beta cells.

[2] = system: 2furoyl-LIGRLO-NH2-induced paw oedema; test: PAR2 agonist-induced paw oedema; assay type: in vivo, Wistar rat; conditions: s.c.; 52 10 mg/kg, ENMD-1068 100 mg/kg; agonist 350 μg/paw
Procedure: The methods used are based on those previously described (Kelso, E. B., et al. Arthritis Rheum 2007, 56, 765-71; Kelso, E. B., et al. J Pharmacol Exp Ther 2006, 316, 1017-24; and Vergnolle, N. J Immunol 1999, 163, 5064-9). Male Wistar rats (n=3 per group) are used. Briefly, rats are given either 5 or 10 mg/kg of a compound of the present invention (p.o. via gavage in olive oil, approx. 500 μL, weight adjusted). Control animals receive only olive oil (500 μL p.o.). Two hours later, the PAR2 agonist 2-furoyl-LIGRLO (350 μg/paw in saline, 100 μL) is injected into the plantar surface (i.pl.) of the right paw pad using a 30 G needle. The left paw acts as a control, receiving saline only. Paw thickness and width are measured after 30 minutes and hourly using digital calipers (World Precision Instruments, USA) and swelling is calculated in area (mm^2; thickness multiplied by width) and expressed as a percentage change from baseline of each individual paw.
Based on previous methods (Kelso E B et al., J Pharmacol Exp Ther 2006, 316(3):1017-24; Suen J Y et al., Br J Pharmacol 2011, doi: 10.1111/j.1476-5381.2011.01610.x.), PAR2 antagonist 52 (10 mg/kg s.c.; n=4), ENMD-1068 (100 mg/kg s.c.; n=4) or vehicle control (DMSO s.c.; n=2) were administered to male Wistar rats. Baseline paw thickness and width were measured using digital calipers (World Precision Instruments, USA) expressed in area (mm^2; thickness×width). Fifteen minutes later, 2Furoyl-LIGLRO-NH2 (350 μg/paw in 100 μL saline) was injected into of the right hind paw pad (intraplantar, i.pl.). The left hind paw acted as a control, receiving saline only. In a separate experiment, vehicle (500 μL olive oil) versus PAR2 antagonist 52 (10 mg/kg p.o. in 500 μL olive oil) only were administered orally to two groups of rats (4 per group). Two hours later, β-tryptase (human recombinant lung, 20 μg in 100 μL saline) was injected into the right hind paw pad (vehicle in left for control) of all animals in each group. In all experiments, paw swelling was measured and expressed in area (mm^2; thickness×width) and plotted as % change from baseline of each individual paw.

PAR2 [3] = molecular target: T2, PAR2 (Homo sapiens, UniProt P55085); test: Colonocyte modulation: intracellular calcium mobilization in HT29 cells; assay type: cell-based; set-up: endogenous in cells; host or cells: HT29 (human colorectal adenocarcinoma); conditions: HT29 colonocytes, 15 min before 2Furoyl-LIGRLO-NH2
T2 sequence (P55085 26-397): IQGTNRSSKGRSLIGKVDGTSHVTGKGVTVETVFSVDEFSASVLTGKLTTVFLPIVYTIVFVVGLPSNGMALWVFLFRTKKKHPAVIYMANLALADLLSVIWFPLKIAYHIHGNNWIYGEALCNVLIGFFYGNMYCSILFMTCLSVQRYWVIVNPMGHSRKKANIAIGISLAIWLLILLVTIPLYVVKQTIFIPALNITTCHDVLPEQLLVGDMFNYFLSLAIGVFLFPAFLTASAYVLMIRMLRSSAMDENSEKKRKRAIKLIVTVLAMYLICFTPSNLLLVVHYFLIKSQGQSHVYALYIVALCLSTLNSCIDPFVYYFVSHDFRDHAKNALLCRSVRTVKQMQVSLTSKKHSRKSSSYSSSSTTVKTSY
Procedure: Human colorectal adenocarcinoma (HT29) cells were incubated with a calcium binding dye ([…]) buffer for 1 h at 37° C. […] Intracellular calcium mobilization was measured by differences in fluorescence plotted against corresponding antagonist concentrations, enabling the determination of antagonist potency.

[4] = system: human monocyte derived macrophages (HMDMs); test: Palmitic acid stimulation of human monocyte derived macrophages; assay type: cell-based
Procedure: To investigate if PAR2 is specifically linked to macrophage inflammation, the effect of palmitic acid on mRNA levels of PARs on human monocyte derived macrophages (HMDMs) was measured (FIG. 12). […] The increase of PAR2 mRNA in HMDM in the presence of palmitic acid was dose-dependent (FIG. 12B). Fold change in PAR2 was calculated relative to untreated sample. FIGS. 12C and D illustrate that palmitic acid stimulates proinflammition cytokines, IL-6 and IL-8, secretion from HMDM. Error bars are means±SEM; *P<0.05, **P<0.01, ***P<0.001.

intracellular calcium release in MIN6 beta cells (PAR2 [1]): activated intracellular calcium release
Compound: 2f-LIGRLO-NH2 [reference compound]
glucose-stimulated insulin secretion (MIN6 beta cells): inhibited glucose stimulated insulin sensitivity

IC50 (PAR2 [3]): 5 mM
Compound: CC(C)CC(=O)N1CCN(C(=O)CCCCCN)CC1 [ENMD-1068, N1-3-methylbutyryl-N4-6-aminohexanoyl-piperazine, reference compound]
paw oedema induced by 2furoyl-LIGRLO-NH2 [2]: had no effect

Compound: CCCCCCCCCCCCCCCC(=O)O [palmitic acid]
IL-6 and IL-8 secretion from HMDM [4]: stimulates | increase in mRNA concentrations of PAR2 ([4]; HMDM, concentration dependent, relative to untreated): < 20 fold
